# From US10232023B2, “Methods for treatment of and prophylaxis against inflammatory disorders” (THE UNIVERSITY OF UTAH RESEARCH FOUNDATION, priority 2013, dated 2019)
# Test system: outbred Swiss mice, murine CL/P model
# Assay: Survival in cecal ligation and puncture (CL/P) model
# Type: in vivo, mouse
# Conditions: 10 mcg/kg IP, 1 hour prior and 6 hours after surgery, vs CL/P control, p=0.06
# Description: FIG. 11 is a graph tracking survival of outbred Swiss mice in various treatment arms of a murine CL/P model. CRISPP treated mice (10 mcg/kg) received 2 doses intraperitoneally; one given 1 hour prior to surgery or sham surgery and one dose given 6 hours after surgery. The same dose, delivery route, and schedule were followed for the scrambled peptide control mice. Ten mice were assessed in each of the CL/P groups.
# Survival of outbred Swiss mice was tracked in various treatment arms following intraperitoneal injection of either LPS (20 mg/kg) or E. coli (4×10^7 bacteria), as shown in FIGS. 10A and 10B. […] Six mice were assessed in both groups: LPS+CRISPP and LPS+scrambled control peptide. […] Ten mice were assessed in each group: no treatment, E. coli+CRISPP, and E. coli+scrambled control peptide. […] Referring to FIG. 11, CRISPP was also evaluated in a murine model of polymicrobial infection caused by cecal ligation and puncture (CL/P). […] Ten mice were assessed in each of the CL/P groups. […]
# Animals were treated with CRISPP (10 mg/kg), nNIF (10 mg/kg), or SCR (10 mg/kg) by i.p. injection 1 hour prior to and 6 hours after infection (E. coli, 4.5×10^7 cfu/mouse, i.p. injection) or stimulation (LPS, 25 mg/kg, i.p. injection). […] Survival was assessed over 6 days at 6 hour to 12 hour intervals.
substance,measurement,value
"Cancer-Associated SCM-Recognition, Immune Defense Suppression, and Serine Protease Protection Peptide [CRISPP, nNIF-related peptide (nNRP)]",Survival,approached statistical significance
